Values of other authors as cited in US10117956B2, “Radiolabeled active targeting pharmaceutical composition and the use thereof” (Institute of Nuclear Energy Research Atomic Energy Council, …, priority 2013, dated 2018).

Conditions: 30 minutes after injection

O=C[C@H](O)[C@@H](O)[C@H](O)[C@H](O)CF [6-FDG, 6-fluoro-6-deoxy-D-glucose]
concentration in the blood: 1.11 % ID/g
